Where a SMILES comes first, the peptide text is derived from it.
What was measured:
Assay type in all cases: biochemical
[1] = test system: C. atrox venom MP; assay: HTS for inhibitors of C. Atrox venom MP; details: compounds approximately 10 μM/well
Protocol: (§1) Background. Phospholipase A2 (PLA2) catalyzes the hydrolysis of phospholipids at the sn-2 position yielding a free fatty acid and a lysophospholipid. The release of arachidonic acid from membrane phospholipids by PLA is believed to be a key step in the control of eicosanoid production within the cell. The Bee Venom PLA2 Control was a 100 μg/ml solution of bee venom PLA2 is supplied as a positive control in the kit (Abcam kit catalog number ab133089). Substrate for MP was DQ Gelatin and assay run per EnzChek gelatinase assay manufacturers instructions. Venom MP activity was not optimized in initial experiments, but reaction rates were during experiments performed by an independently contracted laboratory. SP assay was performed using Nα-Benzoyl-L-arginine-7-amido-4-methylcoumarin hydrochloride. These kits were stored as specified if stored at −20° C. Unless otherwise specified, in the case of my experiments, only crude, unfractionated lyophilized venom purchased from Sigma or the Miami Serpentarium were used. Plate Setup: Manufacturers guidelines (paraphrased herein) were followed unless otherwise specified. Data Analysis: xcel per manufacturers recommendations. MP and SP assays were prepared and plated in the same manner as PLA2 assays except substrates and fluorophores were different. PBS was the buffer in the case of MP and SP assays and absorbance measured at 495 nm. Substrate for MP was DQ Gelatin and assay run per EnzChek gelatinase assay manufacturers instructions except that experiments were run, unconventionally at 37 C to estimate human body temperature and initial experiments for PLA2, MP activity and SP activity were not optimized for screening (e.g. extremely high doses of venom were used—10 mg/mL stock in all cases since the quality of the venom was unknown with final concentration of 0.444 mg/mL in the test wells). SP assay was performed using Na-Benzoyl-L-arginine-7-amido-4-methylcoumarin hydrochloride (Sigma). Specifics of contract laboratory technique vary from the present inventor's initial experiments in terms of venom and substrate optimization, plate size (384 instead of 96), volume and temperature and other factors including different operators such as those described immediately below, performed following the first pilot experiments and subsequently extended by a contract laboratory.
(§2) Small molecule screening and dose-response experiments took place in the Yale Center for Molecular Discovery. Instrumentation used when indicated included Tecan EVO (2), Tecan Aquarius, Matrix PlateMatePlus (2), Matrix PlateMate2×2 liquid transfer robots and Titertek and Thermo Multidrop liquid dispensers (7). PerkinElmer EnVision (3) and Tecan infinite M1000 (2) plate readers sensitively measure absorbance, fluorescence, fluorescence polarization and luminescence in 96- and 384-well plate formats. A GE InCell Analyzer 2200 imaging system acquires multicolor fluorescent and transmitted light images from plates. Piloting collections used in the first phases of screening were selected by the inventor or from libraries of known compounds and natural products available at the time of experiments on selected venoms including: NCC, GenPlus, Pharmakon, Bioactive lipids, Protease Inhibitors, Procured Drugs and FDA Approved Drugs libraries. The GenPlus (the NINDS Custom Collection) from MicroSource Discovery Systems contains 960 compounds. […]

[2] = test system: E. carinatus venom MP; assay: HTS for inhibitors of E. carinatus venom MP; details: compounds approximately 10 μM/well
Protocol: as §1, §2

[3] = test system: M. fulvius venom PLA2; assay: HTS for inhibitors of M. fulvius venom PLA2; details: compounds approximately 10 μM/well
[4] = test system: snake venom metalloproteinase; assay: time course of metalloproteinase activity with excess venom (FIG. 2A); details: inhibitors 100 uM; venom 0.444 mg/mL
Protocol: Substrate for MP was DQ Gelatin and assay run per EnzChek gelatinase assay manufacturers instructions. Venom MP activity was not optimized in initial experiments, but reaction rates were during experiments performed by an independently contracted laboratory. SP assay was performed using Nα-Benzoyl-L-arginine-7-amido-4-methylcoumarin hydrochloride. […] Unless otherwise specified, in the case of my experiments, only crude, unfractionated lyophilized venom purchased from Sigma or the Miami Serpentarium were used. Plate Setup: Manufacturers guidelines (paraphrased herein) were followed unless otherwise specified. Data Analysis: xcel per manufacturers recommendations. MP and SP assays were prepared and plated in the same manner as PLA2 assays except substrates and fluorophores were different. PBS was the buffer in the case of MP and SP assays and absorbance measured at 495 nm. Substrate for MP was DQ Gelatin and assay run per EnzChek gelatinase assay manufacturers instructions except that experiments were run, unconventionally at 37 C to estimate human body temperature and initial experiments for PLA2, MP activity and SP activity were not optimized for screening (e.g. extremely high doses of venom were used—10 mg/mL stock in all cases since the quality of the venom was unknown with final concentration of 0.444 mg/mL in the test wells). SP assay was performed using Na-Benzoyl-L-arginine-7-amido-4-methylcoumarin hydrochloride (Sigma). Specifics of contract laboratory technique vary from the present inventor's initial experiments in terms of venom and substrate optimization, plate size (384 instead of 96), volume and temperature and other factors including different operators such as those described immediately below, performed following the first pilot experiments and subsequently extended by a contract laboratory.
Screening was carried out for inhibitors of venom sPLA2, MP and SPs. Stock solutions of venom at 10 mg/mL were used without typical dilution for assaying various inhibitors of sPLA2, MP and SPs. The final venom concentration in the assays was very high at 0.444 mg/mL.

[5] = test system: Oxyuranus scutellatus venom serine protease; assay: inhibition of venom serine proteases in vitro (FIG. 14); details: elapid Oxyuranus scutellatus
Protocol: Substrate for MP was DQ Gelatin and assay run per EnzChek gelatinase assay manufacturers instructions. Venom MP activity was not optimized in initial experiments, but reaction rates were during experiments performed by an independently contracted laboratory. SP assay was performed using Nα-Benzoyl-L-arginine-7-amido-4-methylcoumarin hydrochloride. […] Unless otherwise specified, in the case of my experiments, only crude, unfractionated lyophilized venom purchased from Sigma or the Miami Serpentarium were used. Plate Setup: Manufacturers guidelines (paraphrased herein) were followed unless otherwise specified. […] MP and SP assays were prepared and plated in the same manner as PLA2 assays except substrates and fluorophores were different. PBS was the buffer in the case of MP and SP assays and absorbance measured at 495 nm. Substrate for MP was DQ Gelatin and assay run per EnzChek gelatinase assay manufacturers instructions except that experiments were run, unconventionally at 37 C to estimate human body temperature and initial experiments for PLA2, MP activity and SP activity were not optimized for screening (e.g. extremely high doses of venom were used—10 mg/mL stock in all cases since the quality of the venom was unknown with final concentration of 0.444 mg/mL in the test wells). SP assay was performed using Na-Benzoyl-L-arginine-7-amido-4-methylcoumarin hydrochloride (Sigma). […]

[6] = target: snake venom metalloproteinase; assay: IC50 for MP inhibition on various venoms (Table 8, FIG. 20); details: general statement; values only in figures

| SMILES | percental (%) reduction of MP activity [1] | % Effect on E. carinatus venom MP [2] | also measured |
| --- | --- | --- | --- |
| CCCCC[C@H](CC(=O)NO)C(=O)N[C@H](C(=O)N1CCC[C@H]1CO)C(C)C [Actinonin] | 92% |  |  |
| COC(=O)[C@H](Cc1ccccc1)NC(=O)[C@@H](N)CC(=O)O [Aspartame] (H-Asp-Phe-OMe) | 6.31% | 6% |  |
| COc1ccc(S(=O)(=O)N(Cc2cccnc2)[C@@H](C(=O)NO)C(C)C)cc1 [CGS 27023] | > 95% |  |  |
| CCN(CC)CC(=O)Nc1c(C)cccc1C [Lidocaine] |  |  | % effect (% inhibition) on M. fulvius venom PLA2 [3]: 11% |
| CC(=O)N[C@@H](CS)C(=O)O [NAC, N-Acetyl Cysteine] |  |  | inhibition of metalloproteinase activity (time course) [4]: varying levels of MP inhibition |
| N=C(N)c1ccc2cc(OC(=O)c3ccc(N=C(N)N)cc3)ccc2c1 [Nafamostat] |  | 28% | activity against venom serine protease in vitro [5]: surprising activity; IC50s on various venoms [6]: micromolar range |
| NC[C@H](O)c1ccc(O)c(O)c1 [Norepinephrine] |  | 28% |  |
| Cc1ccc(C(=O)Nc2ccc(S(=O)(=O)O)c3cc(S(=O)(=O)O)cc(S(=O)(=O)O)c23)cc1NC(=O)c1cccc(NC(=O)Nc2cccc(C(=O)Nc3cc(C(=O)Nc4ccc(S(=O)(=O)O)c5cc(S(=O)(=O)O)cc(S(=O)(=O)O)c45)ccc3C)c2)c1 [Suramin] |  |  | % effect (% inhibition) on M. fulvius venom PLA2 [3]: 21% |

Reference: US11000506B2, “Envenomation therapies and related pharmaceutical compositions, systems and kits” (OPHIREX, INC, priority 2014, dated 2021)
